Assay [1] concerns ERK1/2 phosphorylation in Panc-1 cells. Put plainly: Western ERK1/2 cell-based phosphorylation assay. To be noted: at 10 μM, values in brackets < > are activation %, not inhibition. Also on record: species or system human. In short, it runs like this: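 Panc-1 cells starved overnight in 0.5% FBS, then exposed 6 h at 37 °C to compound at 10 μM final (0.3% DMSO) or serial dilutions for IC50. Stimulation with 1.5 ng/ml EGF for 15 min; phospho-ERK1/2 (Thr202/Tyr204) read by western blot on equal protein loads.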

The next assay addresses T1, KRas Q61H mutant (Homo sapiens, UniProt P01116, Q61H).
T1 construct: made in house
Description: Ras GTP binding domain inhibition assay (labeled-GTP competition, cell-free). In short, it runs like this: (§1)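 First, the His-tagged protein was captured overnight at 4° C on nickel wells. Second, compound was applied at 20 μM or as a dilution series for IC50 over 3 h. Third, 100 nM Cy3- or Cy5-GTP was added for 45 min. Finally, wells were washed and bound label quantified.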

The target in another assay is T2, KRas G12C mutant (Homo sapiens, UniProt P01116, G12C).
T2 construct: made in house
The description is as above. The method in brief:
as §1

For another assay, the target named is T3, KRas G12D mutant (Homo sapiens, UniProt P01116, G12D).
T3 construct: made in house
The description is as above. The method in brief: as §1

The target in the next assay is Rac-1 (Homo sapiens, UniProt P63000). The description is as above. Also on record: made in house. In short, it runs like this:
as §1

For a further assay, the target named is KRas wild type (Homo sapiens, UniProt P01116). The description is as above. Also on record: made in house. The method in brief: as §1
Another assay concerns the target Rho-A (Homo sapiens, UniProt P61586). Described as above. On the set-up: made in house. The method in brief: as §1
Where [2] appears, read: with SOS, read-out: KRas Q61H mutant + SOS: % inh.
The mark [3] stands for this setting: without SOS, read-out: KRas Q61H mutant: % inh.
[4] abbreviates: with SOS, read-out: KRas G12C mutant + SOS: % inh.
Where [5] appears, read: without SOS, read-out: KRas G12C mutant: % inh.
The mark [6] stands for this setting: with SOS, read-out: KRas G12D mutant + SOS: % inh.
Where [7] appears, read: without SOS, read-out: KRas G12D mutant: % inh.
[8] abbreviates: without SOS, read-out: Rac-1: % inh.
Setting [9] is: with SOS, read-out: KRas wild type + SOS: % inh.
The mark [10] stands for this setting: without SOS, read-out: KRas wild type: % inh.
[11] abbreviates: without SOS, read-out: Rho-A: % inh.
The mark [12] stands for this setting: with SOS, read-out: Rac-1 + SOS: % inh.
Setting [13] is: with SOS, read-out: Rho-A + SOS: % inh.

Read-outs that look alike come from different tables or passages of the source.

Results on 8 compounds are retold here after patent US20230227466A1, “SUBSTITUTED THIENOPYRIMIDINES THAT INTERACT WITH THE RAS SUPERFAMILY FOR THE TREATMENT OF CANCERS, INFLAMMATORY DISEASES, RASOPATHIES, AND FIBROTIC DISEASE” (SHY Therapeutics, LLC, priority 2020, published 2023).

One may read the IC50 as the concentration that gives 50% inhibition.

For the compound `COc1cc(Nc2nc(-c3nccn3C)nc3sc(-c4ccn(C(C)C)n4)c(C)c23)ncn1` [Compound 66, 6-(1-Isopropyl-1H-pyrazol-3-yl)-N-(6-methoxypyrimidin-4-yl)-5-methyl-2-(1-methyl-1H-imidazol-2-yl)thieno[2,3-d]pyrimidin-4-amine], the “% inh of ERK1/2 phosphorylation in PANC-1” value (shortened to “% inh”) in assay [1] is reported as 0 (0% inhibition). The inhibition at 20 µM on KRas Q61H mutant (setting [2]) was 26 to 50%; on KRas Q61H mutant (setting [3]) it was 51 to 75%; at KRas G12C mutant (setting [4]), 26 to 50%; at KRas G12C mutant (setting [5]) it was 26 to 50%; on KRas G12D mutant (setting [6]) it was 51 to 75%; at KRas G12D mutant (setting [7]), 76 to 100%. The inhibition at 20 µM lay within 51 to 75% at Rac-1 (setting [8]), 51 to 75% at KRas wild type (setting [9]), 51 to 75% at KRas wild type (setting [10]) and 76 to 100% on Rho-A (setting [11]).
Regarding `COCCn1cnc(-c2nc(O)c3scc(-c4ccccn4)c3n2)c1` [Compound 78, 2-(1-(2-Methoxyethyl)-1H-imidazol-4-yl)-7-(pyridin-2-yl)thieno[3,2-d]pyrimidin-4-ol], in assay [1], the “% inh” value was 0 (0% inhibition). Also, the inhibition at 20 µM at KRas Q61H mutant (setting [2]) lay in the range of 51 to 75%; at KRas Q61H mutant (setting [3]), 76 to 100%; on KRas G12C mutant (setting [4]), 51 to 75%; on KRas G12C mutant (setting [5]), 51 to 75%; on KRas G12D mutant (setting [6]), 51 to 75%; at KRas G12D mutant (setting [7]) it was 76 to 100%. The inhibition at 20 µM at Rac-1 (setting [8]) lay within 51 to 75%; at KRas wild type (setting [9]), 51 to 75%; at KRas wild type (setting [10]), 76 to 100%; on Rho-A (setting [11]) it was 51 to 75%.
Consider `CO[C@H]1CC[C@@H](Nc2nc(-c3ccccn3)nc3sc(-c4ccn(C(C)C)n4)c(C)c23)C1` (racemic) [Compound 69, Rac-6-(1-isopropyl-1H-pyrazol-3-yl)-N-((1R,3S)-3-methoxycyclopentyl)-5-methyl-2-(pyridine-2-yl)thieno[2,3-d]pyrimidin-4-amine], for which the “% inh” value in assay [1] is listed as “D (76-100% inhibition)”. The inhibition at 20 µM at KRas Q61H mutant (setting [2]) is 76 to 100%; at KRas Q61H mutant (setting [3]) it was 76 to 100%; at KRas G12C mutant (setting [4]), 51 to 75%; at KRas G12C mutant (setting [5]), 51 to 75%; at KRas G12D mutant (setting [6]), 51 to 75%; at KRas G12D mutant (setting [7]), 51 to 75%. Besides, the inhibition at 20 µM on Rac-1 (setting [12]) fell in the range of 26 to 50%; at Rac-1 (setting [8]), 1 to 25%; on KRas wild type (setting [9]), 51 to 75%; on KRas wild type (setting [10]), 51 to 75%; on Rho-A (setting [13]), 51 to 75%; at Rho-A (setting [11]), 51 to 75%.
In the case of `CO[C@H]1C[C@@H](Nc2nc(-c3nccn3C)nc3sc(-c4ccn(C(C)C)n4)c(C)c23)C[C@H]1OC` [Compound 42, N-((1r,3R,4S)-3,4-Dimethoxycyclopentyl)-6-(1-isopropyl-1H-pyrazol-3-yl)-5-methyl-2-(1-methyl-1H-imidazol-2-yl)thieno[2,3-d]pyrimidin-4-amine], in assay [1], the “% inh” value was “B (26-50% inhibition)”. The inhibition at 20 µM was in the range of 76 to 100% at KRas Q61H mutant (setting [2]); 76 to 100% at KRas Q61H mutant (setting [3]); 76 to 100% on KRas G12C mutant (setting [4]); 76 to 100% on KRas G12C mutant (setting [5]); 51 to 75% at KRas G12D mutant (setting [6]); 76 to 100% at KRas G12D mutant (setting [7]). Besides, the inhibition at 20 µM on Rac-1 (setting [12]) lay within 51 to 75%; at Rac-1 (setting [8]), 51 to 75%; on KRas wild type (setting [9]) it was 76 to 100%; at KRas wild type (setting [10]), 51 to 75%; on Rho-A (setting [13]) it was 76 to 100%; on Rho-A (setting [11]) it was 51 to 75%.
Take `Cc1c(-c2ccn(C(C)C)n2)sc2nc(-c3nccn3C)nc(NCc3ncc[nH]3)c12` [Compound 57, N-((1H-Imidazol-2-yl)methyl)-6-(1-isopropyl-1H-pyrazol-3-yl)-5-methyl-2-(1-methyl-1H-imidazol-2-yl)thieno[2,3-d]pyrimidin-4-amine]: the “% inh” value in assay [1] is “A (1-25% inhibition)”. In addition, the inhibition at 20 µM on KRas Q61H mutant (setting [2]) lay within 26 to 50%; at KRas Q61H mutant (setting [3]) it was 26 to 50%; on KRas G12C mutant (setting [4]), 26 to 50%; on KRas G12C mutant (setting [5]) it was 26 to 50%; on KRas G12D mutant (setting [6]), 26 to 50%; on KRas G12D mutant (setting [7]), 1 to 25%. Moreover, the inhibition at 20 µM at Rac-1 (setting [8]) was 0%; on KRas wild type (setting [9]), 26 to 50%; at KRas wild type (setting [10]), 26 to 50%; at Rho-A (setting [11]), 51 to 75%.
With `COCC1CCN(c2nc(-c3nccn3C)nc3sc(-c4ccn(C(C)C)n4)c(C)c23)C1` (racemic) [Compound 38, rac-6-(1-Isopropyl-1H-pyrazol-3-yl)-4-(3-(methoxymethyl)pyrrolidin-1-yl)-5-methyl-2-(1-methyl-1H-imidazol-2-yl)thieno[2,3-d]pyrimidine], the “% inh” value in assay [1] is “D (76-100% inhibition)”. Besides, the inhibition at 20 µM was 76 to 100% on KRas Q61H mutant (setting [2]); 76 to 100% on KRas Q61H mutant (setting [3]); 76 to 100% at KRas G12C mutant (setting [4]); 51 to 75% at KRas G12C mutant (setting [5]); 76 to 100% at KRas G12D mutant (setting [6]); 51 to 75% on KRas G12D mutant (setting [7]). Further, the inhibition at 20 µM on Rac-1 (setting [12]), at Rac-1 (setting [8]), at KRas wild type (setting [9]), on KRas wild type (setting [10]), at Rho-A (setting [13]) and at Rho-A (setting [11]) was 76 to 100% in each case.
On to `CO[C@H]1CC[C@@H](Nc2nc(C(=O)Nc3ccccn3)nc3sccc23)C1` (racemic) [Compound 16, rac-4-(((1R,3S)-3-Methoxycyclopentyl)amino)-N-(pyridin-2-yl)thieno[2,3-d]pyrimidine-2-carboxamide], for which the “% inh” value in assay [1] is 0 (0% inhibition). Moreover, the inhibition at 20 µM at KRas Q61H mutant (setting [2]) was 0%; on KRas Q61H mutant (setting [3]), 1 to 25%; on KRas G12C mutant (setting [4]), 1 to 25%; at KRas G12C mutant (setting [5]), 1 to 25%; at KRas G12D mutant (setting [6]) it was 1 to 25%; at KRas G12D mutant (setting [7]), 1 to 25%. In addition, the inhibition at 20 µM on Rac-1 (setting [12]) is 0%; at Rac-1 (setting [8]) it was 1 to 25%; at KRas wild type (setting [9]), 0%; at KRas wild type (setting [10]) it was 1 to 25%; at Rho-A (setting [13]), 1 to 25%; on Rho-A (setting [11]) it was 0%. Further, on KRas Q61H mutant (with SOS), the IC50 is above 10 µM.
Consider `CO[C@H]1C[C@H](Nc2nc(-c3nccn3C)nc3sc(-c4ccn(C(C)C)n4)c(C)c23)C[C@H]1OC` [Compound 43, N-((1s,3R,4S)-3,4-Dimethoxycyclopentyl)-6-(1-isopropyl-1H-pyrazol-3-yl)-5-methyl-2-(1-methyl-1H-imidazol-2-yl)thieno[2,3-d]pyrimidin-4-amine], for which the “% inh” value in assay [1] is on record as “B (26-50% inhibition)”. Further, the inhibition at 20 µM at KRas Q61H mutant (setting [2]) was in the range of 76 to 100%; at KRas Q61H mutant (setting [3]) it was 1 to 25%; at KRas G12C mutant (setting [4]), 76 to 100%; at KRas G12C mutant (setting [5]) it was 1 to 25%; on KRas G12D mutant (setting [6]) it was 76 to 100%; at KRas G12D mutant (setting [7]), 76 to 100%. The inhibition at 20 µM fell in the range of 51 to 75% at Rac-1 (setting [12]); 26 to 50% at Rac-1 (setting [8]); 76 to 100% on KRas wild type (setting [9]); 26 to 50% at KRas wild type (setting [10]); 76 to 100% on Rho-A (setting [13]); 76 to 100% at Rho-A (setting [11]).
